{"source": "patent US10383848B2", "about": "“Indole-based therapeutics” (Creighton University, priority 2016, dated 2019)", "key": {"M. abscessus 103 [1]": {"test_system": "M. abscessus 103", "settings": "mouse, in vivo, 300 mg/kg"}, "panel of mycobacteria": {"test_system": "panel of mycobacteria", "assay": "MIC against a panel of mycobacteria (summary ranges)", "format": "cell-based", "settings": "M. avium and M. xenopi strains of Table 3"}, "[2]": {"test_system": "M. tuberculosis H37Rv mc^26206", "assay": "microbe, parasite or virus in culture", "format": "cell-based", "settings": "TD50 in THP-1 cells"}, "M. abscessus DCI #21": {"test_system": "M. abscessus DCI #21", "assay": "MIC, resazurin microtiter assay", "format": "cell-based", "settings": "Mycobacteroides abscessus; Mueller Hinton II; read-out: MIC M. abscessus DCI #21"}, "mycobacteria": {"test_system": "mycobacteria", "assay": "organism not typed", "format": "cell-based", "settings": "lowest concentration reducing CFU by 90% relative to the inoculum; strain not stated; read-out: MBC90"}, "P. aeruginosa PAO-1": {"test_system": "P. aeruginosa PAO-1", "assay": "MIC, resazurin microtiter assay", "format": "cell-based, Pseudomonas aeruginosa", "settings": "Mueller Hinton II"}, "[3]": {"assay": "Dose response pharmacokinetics, plasma concentration by LC-MS/MS", "format": "in vivo, BALB/c mice", "settings": "single oral dose 100 and 200 mg kg^-1, 2 and 4 h, mice", "method": "P.O. dosing at 100, 200 and 300 mg kg^−1 was administered; after administration, blood was collected at 2 and 4 hour time points for quantification. Plasma concentration of the compounds 5 and 25 was determined using liquid chromatography tandem mass spectrometry. Data are presented as mean±SD.\nFemale BALB/c mice were given a dose of compounds 5 or 25 at 100, 200 and 300 mg kg′ by oral gavage in a volume of 0.2 mL. At 2 and 4 hours after compound administration, animals were euthanized and cardiac blood (approximately 0.7 mL) was collected. Plasma was separated using centrifugation at 12,000 g for 20 min at 4° C. and stored at […]. Concentrations of compounds 5 and 25 in plasma were analyzed with LC-tandem MS (LC-MS/MS, AB SCIEX QTRAP 5500 system) with warfarin as internal standard. MS detection of mass transitions 295.2/135.2 (Compound 5), 299.2/146.1 (Compound 25) and 309.1/163.0 (Warfarin) was carried out. Concentration calculation was performed with MultiQuant Software (Version 2.1, AB SCIEX). The pharmacokinetic profile of the test compound was analyzed from plasma concentration-time data after oral administration."}, "M. xenopi WT": {"test_system": "M. xenopi WT", "assay": "MIC, resazurin microtiter assay", "format": "cell-based", "settings": "Mycobacterium xenopi, Mueller Hinton II; read-out: MIC M. xenopi WT"}, "[4]": {"assay": "In vivo acute toxicity assay (Maximum Tolerated Dose)", "set-up": "species or system Balb/C mice", "settings": "100, 200 and 300 mg/kg for 3 consecutive days of dosing, gavage, mice", "method": "6-8 week old Balb/C female mice were ordered from Charles River. Mice were rested one to two weeks before dosing. For each dose of compound, 3 mice were utilized. […] Compound was given twice per day for 3 consecutive days by gavage, at 100 μl/mouse. Compounds were prepared the day before or the day of dosing and stored at 4° C. until dosing. The time of dosing was recorded for each mouse. Observations were recorded immediately, at 10 min, 1 hour, 2 hours, 4 hours, and 24 hours after dosing. […] Mice were dosed for three days and on the fourth day mice were observed twice daily for two days, then once daily for five days.\nAs an initial in vivo study, the safety of compounds and preliminary pharmacokinetics was assessed in an acute toxicity mouse model (Maximum Tolerated Dose assay, MTD) to evaluate any potential adverse effects and determine a safe dose for mouse efficacy studies. Compounds were tested to ensure safe use in healthy mice prior to any further in vivo testing. […] Novel compounds were generally administered to mice at 40, 75 and 100 mg/kg in a tested formulation, administered on three consecutive days, 3 mice per dose group, in the chosen formulation. […] Mice were observed 10 min, 1, 2, 4 hours after dosing and then daily afterwards. During the observations, humane handling practices and animal welfare regulations were strictly followed. […]"}, "M. smegmatis mc^2155": {"test_system": "M. smegmatis mc^2155", "assay": "MIC, resazurin microtiter assay", "format": "cell-based", "settings": "Mycolicibacterium smegmatis, MC^2155, 7H9-ADC-0.05% Tween 80; read-out: MIC M. smeg. mc^2155"}, "S. aureus ATCC25923": {"test_system": "S. aureus ATCC25923", "assay": "MIC, resazurin microtiter assay", "format": "cell-based", "settings": "Staphylococcus aureus, ATCC25923; Mueller Hinton II; read-out: MIC S. aureus ATCC25923"}, "M. bolletii ATCC 14472": {"test_system": "M. bolletii ATCC 14472", "assay": "MIC, resazurin microtiter assay", "format": "cell-based", "settings": "Mycobacteroides abscessus, ATCC14472, Mueller Hinton II; read-out: MIC M. bolletii ATCC 14472"}, "M. abscessus ATCC 19977": {"test_system": "M. abscessus ATCC 19977", "assay": "MIC, resazurin microtiter assay", "format": "cell-based", "settings": "Mycobacteroides abscessus, ATCC19977; Mueller Hinton II; read-out: MIC M. abscessus ATCC 19977"}, "THP-1 cells": {"test_system": "THP-1 cells", "assay": "Cytotoxicity assay, THP-1 cell viability (CellTiter-Glo)", "format": "cell-based, human", "settings": "3 days", "method": "The cytotoxicity of compounds was determined by measuring THP-1 cell viability after 3 days in the presence of test compounds. Compounds were prepared as 10-point serial dilutions in DMSO. The highest concentration of compound tested was 50 μM where compounds were soluble in DMSO at 10 mM. THP-1 cells were cultured in complete RPMI and differentiated into macrophage-like cells using 80 nM PMA overnight at 37° C., 5% CO2. Cells were inoculated into assay plates and cultured for 24 h before compound dilutions were added to a final DMSO concentration of 0.5%. Each run included staurosporine as a control. Assay plates were incubated for 3 days at 37° C., 5% CO2, growth was measured using the CellTiter-Glo® Luminescent Cell Viability Assay (Promega) which uses ATP as an indicator of cell viability. Relative luminescent units (RLU) were measured using a Biotek Synergy 4 plate reader. The dose response curve was fitted using the Levenberg-Marquardt algorithm."}, "[5]": {"test_system": "M. massiliense CIP 108297", "assay": "MIC, resazurin microtiter assay", "format": "cell-based", "settings": "Mycobacteroides abscessus, CIP108297, Mueller Hinton II; read-out: MIC M. massiliense CIP 108297"}, "M. abscessus 1513": {"test_system": "M. abscessus 1513", "assay": "MIC/MBC by microbroth dilution (MH or 7H9 broth)", "format": "cell-based, M. abscessus subsp. abscessus", "settings": "Mycobacteroides abscessus, 1513"}, "[6]": {"test_system": "M. massiliense strain 1513", "assay": "Metabolic labeling and mycolic acid analysis", "settings": "4x and 10x MIC, 16 hr, [1,2-14C]acetate labeling, TLC", "quoted_text": "Cultures of M. massiliense 1513 grown to mid log-phase in Mueller-Hinton II broth were incubated with different concentrations of inhibitors for 16 hr at 37° C. with shaking. 0.5 μCi/mL [1,2-^14C]acetic acid (specific activity, 52 Ci/mol, PerkinElmer Inc.) was added at the same time as the inhibitors. Total lipids and cell wall-bound mycolic acid methyl esters were prepared from treated and untreated cells and analyzed by TLC as described in Grzegorzewicz et al, Nature Chemical Biology, 2012, 8:334+341."}, "M. intracellulare 1956": {"test_system": "M. intracellulare 1956", "assay": "MIC, resazurin microtiter assay", "format": "cell-based", "settings": "Mueller Hinton II; read-out: MIC M. avium Intracellulare 1956"}, "M. abscessus 103 [7]": {"test_system": "M. abscessus 103", "assay": "MIC/MBC by microbroth dilution (MH or 7H9 broth)", "format": "cell-based, M. abscessus subsp. bolletii", "settings": "Mycobacteroides abscessus, 103"}, "M. abscessus 103 [8]": {"test_system": "M. abscessus 103", "assay": "Acute SCID mouse infection efficacy model", "settings": "SCID mice i.v. infected with M. abscessus 103; compounds 300 mg/kg PO in 20% cyclodextrin, AMI 150 mg/kg SQ, once daily 8 days"}, "M. chelonae ATCC 35752": {"test_system": "M. chelonae ATCC 35752", "assay": "MIC, resazurin microtiter assay", "format": "cell-based", "settings": "Mycobacteroides chelonae, ATCC35752, Mueller Hinton II; read-out: MIC M. chelonae ATCC 35752"}, "M. massiliense CRM 0019": {"test_system": "M. massiliense CRM 0019", "assay": "MIC, resazurin microtiter assay", "format": "cell-based", "settings": "Mycobacteroides abscessus, CRM0019, Mueller Hinton II; read-out: MIC M. massiliense CRM 0019"}}, "note": "Read-outs that look alike come from different tables or passages of the source.", "data": [{"smiles": "Cc1cc(C)c2cc(C(=O)NC3CCCCCCC3)[nH]c2c1", "note": "[Compound 25, N-cyclooctyl-4,6-dimethyl-1H-indole-2-carboxamide]", "values": [{"measurement": "Survival until the Day 12 endpoint", "setting": "M. abscessus 103 [1]", "result": "all animals survived"}, {"measurement": "Weight loss", "setting": "M. abscessus 103 [1]", "result": "didn't demonstrate any significant weight loss"}, {"measurement": "MIC range in MAC panel", "setting": "panel of mycobacteria", "result": "0.25 to 1", "unit": "µg/mL"}, {"measurement": "Selectivity Index (TD50/MIC) M. tb H37Rv", "setting": "[2]", "result": ">764"}, {"measurement": "MIC", "setting": "M. abscessus DCI #21", "result": 7.8, "unit": "ng/mL"}, {"measurement": "MBC", "setting": "mycobacteria", "result": 0.015, "unit": "µg/mL"}, {"measurement": "MIC P. aeruginosa PAO-1", "setting": "P. aeruginosa PAO-1", "result": "inactive"}, {"measurement": "MIC", "setting": "P. aeruginosa PAO-1; Pseudomonas aeruginosa, PAO1, read-out: MIC P. aeruginosa PAO-1", "result": "> 160", "unit": "µg/mL"}, {"measurement": "Blood concentration compared to compound 5", "setting": "[3]", "result": "lower blood concentration"}, {"measurement": "MIC", "setting": "M. xenopi WT", "result": 0.25, "unit": "µg/mL"}, {"measurement": "Tolerability (acute toxicity, MTD)", "setting": "[4]", "result": "well tolerated"}, {"measurement": "MIC", "setting": "M. smegmatis mc^2155", "result": "0.313 to 0.625", "unit": "µg/mL"}, {"measurement": "MIC", "setting": "S. aureus ATCC25923", "result": "> 160", "unit": "µg/mL"}, {"measurement": "MIC", "setting": "M. bolletii ATCC 14472", "result": 3.9, "unit": "ng/mL"}, {"measurement": "MIC", "setting": "M. abscessus ATCC 19977", "result": 0.063, "unit": "µg/mL"}, {"measurement": "TD50", "setting": "THP-1 cells", "result": ">14.9", "unit": "µg/mL"}, {"measurement": "MIC", "setting": "[5]", "result": 0.031, "unit": "µg/mL"}, {"measurement": "MBC", "setting": "M. abscessus 1513; MH broth, read-out: MBC99 M. abscessus subsp. abscessus 1513", "result": 64, "unit": "µg/mL"}, {"measurement": "MIC", "setting": "M. abscessus 1513; read-out: MIC M. abscessus 1513, 7H9 Broth", "result": "> 64", "unit": "µg/mL"}, {"measurement": "MIC", "setting": "M. abscessus 1513; read-out: MIC M. abscessus 1513, MH Broth", "result": 16, "unit": "µg/mL"}, {"measurement": "TMM build-up and mycolic acid transfer onto arabinogalactan and TDM", "setting": "[6]", "result": "concentration-dependent build-up of TMM"}, {"measurement": "MIC", "setting": "M. intracellulare 1956", "result": 1, "unit": "µg/mL"}, {"measurement": "MBC", "setting": "M. abscessus 103 [7]; MH broth, read-out: MBC99 M. abscessus subsp. bolletii 103", "result": 64, "unit": "µg/mL"}, {"measurement": "MIC", "setting": "M. abscessus 103 [7]; read-out: MIC M. abscessus 103, 7H9 Broth", "result": "> 64", "unit": "µg/mL"}, {"measurement": "MIC", "setting": "M. abscessus 103 [7]; read-out: MIC M. abscessus 103, MH Broth", "result": 16, "unit": "µg/mL"}, {"measurement": "log10 CFU liver counts on day 12", "setting": "M. abscessus 103 [8]", "result": "4.90±0.49", "unit": "log10 CFU"}, {"measurement": "log10 CFU spleen counts on day 12", "setting": "M. abscessus 103 [8]", "result": "2.91±0.45", "unit": "log10 CFU"}, {"measurement": "MIC", "setting": "M. chelonae ATCC 35752", "result": 0.063, "unit": "µg/mL"}, {"measurement": "MIC", "setting": "M. massiliense CRM 0019", "result": 7.8, "unit": "ng/mL"}]}]}
